Measured values as given in patent US9738684B2, “N-terminally modified linear and branched polyamine conjugated peptidomimetics as antimicrobials agents” (COUNCIL OF SCIENTIFIC & INDUSTRIAL RESEARCH, priority 2015, dated 2017).

Tests used:
Assay type in all cases: cell-based, Staphylococcus aureus
MRSA [1] = assay: MIC in presence of 25% v/v human serum
Procedure: Following bacterial strains were used in this study: S. aureus (ATCC 29213), methicillin resistant S. aureus (ATCC 33591), Staphylococcus epidermidis (ATCC 12228), methicillin resistant Staphylococcus epidermidis(ATCC 51625), Enterococcus faecalis (ATCC 7080), Escherichia coli (ATCC 11775), and Acinetobacter baumannii (ATCC 19606). Antibacterial activity was evaluated using a modified serial broth dilution method in accordance with Clinical Laboratory Standard Institute guidelines [Methods for dilution antimicrobial susceptibility tests for bacteria that grow aerobically-7th ed. Approved standard M7-A7. Clinical and Laboratory Standards Institute, Wayne, Pa., Biochim. Biophys. Acta 1798:1864-1875, 2010.]. Briefly, the inoculums were prepared from mid-log phase bacterial cultures. Peptidomimetics were incubated with bacterial suspension in Muller Hinton broth media (10^5 CFU/mL) in 96 well microtitre plate. The plates were incubated overnight with agitation (200 rpm) at 37° C. After 18 h, absorbance was measured at 630 nm. Cultures without test peptidomimetics were used as positive control. Un-inoculated Mueller Hinton Broth (MHB) was used as negative control. Tests were carried out in duplicate on at least three different days. […] Further, antibacterial activity of active peptidomimetics 1c and 1d were also evaluated against MRSA in presence of 25% v/v human serum as well as bovine serum.

MRSA [2] = assay: Membrane depolarization with DiSC3(5) dye; details: up to the highest concentration tested
Procedure: For determination of membrane depolarizing ability of designed peptidomimetics, a membrane potential sensitive dye DiSC3(5) was used as described previously with minor modifications [Org Biomol. Chem. 10: 8326-8335, 2012; J. Am. Chem. Soc., 132: 18417-18428, 2010.]. Briefly, overnight grown MRSA was sub cultured into MHB for 2-3 h at 37° C. to obtain mid-log phase cultures. The cells were centrifuged at 4000 rpm for 10 min at 25° C., washed, and re-suspended into respiration buffer (5 mM HEPES, 20 mM glucose, pH 7.4) to obtain a diluted suspension of OD600˜0.05. Then DiSC3(5) [0.18 μM in DMSO], was added to 500 μL aliquotes of the re-suspended cells and allowed to stabilize for 1 h. Baseline fluorescence was acquired using a Edinburg F900 spectrofluorometer by excitation at 622 nm and emission at 670 nm in a 1 cm path length cuvette. Bandwidth of 5 nm was employed for excitation and emission. Subsequently, increasing concentrations of test peptidomimetics were added to the stabilized cells and the increase of fluorescence on account of the de-quenching of DiSC3(5) dye was measured after every 2 min to obtain the maximal depolarization. Increase in relative fluorescence unit (RFU) was plotted against increasing concentrations of different peptidomimetics or PMB. […] The increase in fluorescence for lipid tagged peptidomimetics was concentration dependent up to 9.9 μg/mL and henceforth, got saturated resulting into plateau like dose response curves. The experiment was repeated twice on two consecutive days and produced similar results.

[3] = system: MRSA (ATCC 33591) biofilm; assay: 24 h preformed mature biofilm (alamar blue, crystal violet); details: 20×MICb: 1c 140 μg/mL, 1d 70 μg/mL, VAN 20 μg/mL
Procedure: (§1) To evaluate potential of designed active peptidomimetics against MRSA biofilms a methodology as used previously was employed with minor modifications [Antimicrob. Agents Chemother., 57:2726-2737, 2013]. Briefly, freshly inoculated MRSA (ATCC 33591) was grown in biofilm growth media (TSB supplemented with 0.5% w/v NaCl and 0.25% w/v glucose) overnight. Next day, the culture was diluted in fresh biofilm growth media to 10^5 CFU/mL. 200 μl of diluted culture was dispensed in wells of a 96-well polystyrene plate for biofilm formation. […] Biofilm cultures were re-incubated at 37° C. for 24 h. After removal of medium, the biofilms were further washed twice with sterile NaCl/Pi buffer and assessed for metabolic activity (alamar blue assay) and biomass quantification (Crystal violet assay).

[4] = system: MRSA (ATCC 33591) biofilm; assay: Inhibition of biofilm formation (alamar blue, crystal violet); details: sub-MICb; for reduction in metabolic activity (alamar blue), biofilm formation: printed as 'reduction up to'
Procedure: as §1

[5] = system: MRSA (ATCC 33591) biofilm; assay: Confocal laser scanning microscopy of biofilm, thickness by z-stacking; details: for thickness of mature biofilm after treatment: 10×MICb, untreated 23.6±2.5 μm; for thickness of mature biofilm after treatment / confocal observation of mature biofilm: 24 h preformed biofilm; for confocal observation of mature biofilm: 20×MICb; for average thickness of biofilm, biofilm formation: MICb; for average thickness of biofilm, biofilm formation / thickness of biofilm, biofilm formation: control 14.3±1.4 μm; for thickness of biofilm, biofilm formation: sub-MICb
Text: For visualization of biofilm and validation of AB and CV assay we performed confocal microscopy. For this biofilm formation was induced on glass cover slips in a 6-well plate. The biofilm on cover slips were washed twice with sterile NaCl/Pi buffer and stained with a Live/Dead kit reagent (Invitrogen, Molecular Probes, Eugene, Oreg., USA) following the manufacturer's instructions. This stain contains DNA binding dyes SYTO 9 (green fluorescent) and propidium iodide (PI; red fluorescent). When used alone, SYTO 9 stains all bacteria in a population, those with intact as well as damaged membranes. In contrast, PI penetrates only bacteria with damaged membranes, causing a reduction in the SYTO 9 stain (green fluorescence). The biofilms were examined with an Olympus flow view FV1000 (confocal laser scanning microscope, CLSM). The experiment was repeated three times on three different days and representative data is presented here.
We next measured the thickness of biofilm using z-stacking in confocal microscopy. […] At MICb, 1c and 1d prevented formation of biofilm in which very few cells were adhered to substratum with observed average thickness of 3.9±1.1 μm and 3.5±0.6 μm, respectively. Furthermore, at sub-MICb concentration the observed thicknesses were 5.2±0.3 μm and 5.8±0.4 μm (FIG. 7A.b and FIG. 7A.d).

Structure (SMILES)	increase in MIC in human serum (MRSA [1])	change in relative fluorescence unit (RFU), membrane depolarization (MRSA [2])	biomass remaining compared to control, 24 h pre-formed biofilm (crystal violet) [3]	% biomass reduction (crystal violet), biofilm formation [4]	reduction in metabolic activity (alamar blue), biofilm formation [4]	thickness of mature biofilm after treatment [5]	confocal observation of mature biofilm [5]	average thickness of biofilm, biofilm formation [5]	thickness of biofilm, biofilm formation [5]
NCCCNCCCCNCCCNC(=O)C(Cc1c[nH]c2ccccc12)NC(=O)C(Cc1c[nH]c2ccccc12)NC(=O)Cc1ccc(C(F)(F)F)cc1 (stereo not drawn) [1c]	4 fold	only marginal changes in RFU	24.0±13.4%	19.8±5.6%	33.1±5.7%	7.1±1.5 μm	most of the cells lost their integrity	3.9±1.1 μm	5.2±0.3 μm
CCCCCCCCCC(=O)NC(Cc1c[nH]c2ccccc12)C(=O)NC(Cc1c[nH]c2ccccc12)C(=O)NCCCNCCCCNCCCN (stereo not drawn) [1d]	8 fold	intermediate changes in fluorescence intensity	21.4±9.2%	28.2±11.1%	26.4±3.3%	7.0±1.0 μm	most of the cells lost their integrity	3.5±0.6 μm	5.8±0.4 μm
